Measurements taken from patent publication US10076519B2 (CYTOKINETICS, INC., priority 2010, dated 2018).

system: rabbit skeletal myofibrils (fast skeletal myofibrils); experiment: Activation of fast skeletal myofibrils (PUMA assay, PK/LDH-coupled ATPase at pCa25); format: biochemical; conditions: AC1.4 determined according to the procedure of Example 39; reported as class symbols
Method in brief: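 Detergent-washed rabbit psoas myofibrils (~90% fast fibres, calcium-regulated) assayed at calcium giving 25% of maximal ATPase rate (pCa25). ADP turnover coupled via pyruvate kinase/lactate dehydrogenase to NADH oxidation, read at 340 nm. Buffer 12 mM PIPES, 2 mM MgCl2, 1 mM DTT, pH 6.8; AC1.4 values derived.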

Question: For `CC(C)(CNc1ccc(C(=O)N[C@H]2CCC[C@H]2C(N)=O)nn1)c1ccc(F)cc1` (stereo in doubt) [(2S,1R)-2-[(6-{[2-(4-fluorophenyl)-2-methylpropyl]amino}pyridazin-3-yl)carbonylamino]cyclopentane-carboxamide], which “Mean AC1.4” value is on record?
Answer: D (D=>20 uM)

Question: Which “Mean AC1.4” value does the source give for `CC(=O)c1ccc(NCC(C)(C)c2ccc(F)cc2)nn1` [1-(6-{[2-(4-fluorophenyl)-2-methylpropyl]amino}pyridazin-3-yl)ethan-1-one] here?
Answer: D (D=>20 uM)

Question: How did the “Mean AC1.4” value turn out when `NC(=O)c1cccc(-c2ccc(NCC3(C(=O)O)CCC3)nn2)c1` [1-({[6-(3-carbamoylphenyl)pyridazin-3-yl]amino}methyl)cyclobutane-carboxylic acid] was run?
Answer: D (D=>20 uM)

Question: How did the “Mean AC1.4” value turn out when `N#Cc1cccc(-c2ccc(NCC3(C(=O)O)CCC3)nn2)c1` [1-({[6-(3-cyanophenyl)pyridazin-3-yl]amino}methyl)cyclobutane-carboxylic acid] was run?
Answer: D (D=>20 uM)

Question: For `CC(C)(CNc1ccc(-c2ccc3[nH]nc(C(O)CO)c3c2)nn1)c1ccc(F)cc1` (centres unmarked) [1-[5-(6-{[2-(4-fluorophenyl)-2-methylpropyl]amino}pyridazin-3-yl)-1H-indazol-3-yl]ethane-1,2-diol], which “Mean AC1.4” value is on record?
Answer: B (B=1-10 uM)

Question: Which “Mean AC1.4” value does the source give for `CC(C)(CNc1ccc(C(=O)N2CCC2C(N)=O)nn1)c1ccc(F)cc1` (centres unmarked) [1-[(6-{[2-(4-fluorophenyl)-2-methylpropyl]amino}pyridazin-3-yl)carbonyl]azetidine-2-carboxamide] here?
Answer: D (D=>20 uM)

Question: `CC(C)(CNc1ccc(C(=O)N2CCCCC2C(N)=O)nn1)c1ccc(F)cc1` (centres unmarked) [1-[(6-{[2-(4-fluorophenyl)-2-methylpropyl]amino}pyridazin-3-yl)carbonyl]piperidine-2-carboxamide] was tested. Which “Mean AC1.4” value did it give?
Answer: D (D=>20 uM)

Question: How did the “Mean AC1.4” value turn out when `CC(C)(CNc1ccc(C(=O)N2CCCC(C(N)=O)C2)nn1)c1ccc(F)cc1` (centres unmarked) [1-[(6-{[2-(4-fluorophenyl)-2-methylpropyl]amino}pyridazin-3-yl)carbonyl]piperidine-3-carboxamide] was run?
Answer: D (D=>20 uM)

Question: Which “Mean AC1.4” value does the source give for `CC(C)(CNc1ccc(C(=O)N2CCC(C(N)=O)CC2)nn1)c1ccc(F)cc1` [1-[(6-{[2-(4-fluorophenyl)-2-methylpropyl]amino}pyridazin-3-yl)carbonyl]piperidine-4-carboxamide] here?
Answer: D (D=>20 uM)

same assay, conditions: median AC1.4 class, procedure of Example 39

Question: `NC(=O)c1ccc(F)c(-c2ccc(NC3(c4ncccc4Cl)CCC3)nn2)c1` was tested. Which “Mean AC1.4” value did it give?
Answer: A (A=<1 uM)

Question: Which “Mean AC1.4” value does the source give for `NC(=O)c1cccc(-c2ccc(NC3(c4ccc(Cl)cc4)CCC3)nn2)c1` here?
Answer: B (B=1-10 uM)

Question: How did the “Mean AC1.4” value turn out when `N#Cc1ccc(C2(Nc3ccc(-c4cccc(C(N)=O)c4)nn3)CCC2)cc1` was run?
Answer: D (D=>20 uM)

Question: With `N#Cc1cc(-c2ccc(NC3(c4ccc(F)cc4)CCC3)nn2)ccn1` as the compound, how does the “Mean AC1.4” value read?
Answer: B (B=1-10 uM)

Question: `NC(=O)c1cc(-c2ccc(NC3(c4ccc(F)cc4)CCC3)nn2)ccn1` was tested. Which “Mean AC1.4” value did it give?
Answer: B (B=1-10 uM)

Question: How did the “Mean AC1.4” value turn out when `CS(=O)(=O)Nc1cccc(-c2ccc(NC3(c4ccc(F)cc4)CCC3)nn2)c1` was run?
Answer: A (A=<1 uM)

Question: Which “Mean AC1.4” value does the source give for `CS(=O)(=O)Nc1ccc(-c2ccc(NC3(c4ccc(F)cc4)CCC3)nn2)cc1` here?
Answer: B (B=1-10 uM)

Question: Which “Mean AC1.4” value does the source give for `CC(O)(c1cnc(-c2ccc(NCC3(c4ncccc4F)CCC3)nn2)s1)C(F)(F)F` (centres unmarked) [1,1,1-trifluoro-2-{2-[6-({[(3-fluoro(2-pyridyl))cyclobutyl]methyl}ami-no)pyridazin-3-yl](1,3-thiazol-5-yl)}propan-2-ol] here?
Answer: C (C=10-20 uM)

Question: With `NC(=O)C1CCCN(C(=O)c2cnc(-c3ccc(NCC4(c5ncccc5F)CCC4)nn3)s2)C1` (centres unmarked) [1-({2-[6-({[(3-fluoro-2-pyridyl)cyclobutyl]methyl}ami-no)pyridazin-3-yl]-1,3-thiazol-5-yl}carbonyl)piperidine-3-carboxamide] as the compound, how does the “Mean AC1.4” value read?
Answer: C (C=10-20 uM)

same assay, conditions: median AC1.4 reported as class; procedure of Example 39

Question: `CC(C)(CNc1ccc(-c2cn3c(C(N)=O)csc3n2)nn1)c1ncccc1Cl` was tested. Which “Mean AC1.4” value did it give?
Answer: A (A=<1 uM)

Question: Which “Mean AC1.4” value does the source give for `CS(=O)(=O)N1CCN(Cc2cnc(-c3ccc(NCC4(c5ncccc5F)CCC4)nn3)s2)CC1` [1-({2-[6-({[(3-fluoro(2-pyridyl))cyclobutyl]methyl}ami-no)pyridazin-3-yl](1,3-thiazol-5-yl)}methyl)-4-(methylsulfonyl)piperazine] here?
Answer: D (D=>20 uM)
